Where two headings read alike, the source gives them in different places.
Experiments:
p45MEK (GST-MEK) = p45MEK (GST-MEK) (Homo sapiens, UniProt Q02750); experiment: Cascade assay for inhibitors of the MAP kinase pathway (in vitro); type: biochemical
[1] = test system: activation of MAP kinase in whole cells; experiment: Whole cell MAP kinase assay (in vivo, cell culture); type: cell-based
Description: To determine if compounds were able to block activation of MAP kinase in whole cells, the following protocol was used: Cells were plated in multi-well plates and grown to confluence. Cells were then serum-deprived overnight. Cells were exposed to the desired concentrations of compound or vehicle (DMSO) for 30 minutes, followed by addition of a growth factor, eg, PDGF (100 ng/mL). After a 5-minute treatment with the growth factor, cells were washed with PBS, then lysed in a buffer consisting of 70 mM NaCl, 10 mM HEPES (pH 7.4), 50 mM glycerol phosphate, and 1% Triton X-100. Lysates were clarified by centrifugation at 13,000×g for 10 minutes. Five micrograms of the resulting supernatants were incubated with 10 μg microtubule associated protein-2 (Map2) for 15 minutes at 30° C. in a final volume of 25 μL containing 50 mM Tris (pH 7.4), 10 mM MgCl2, 2 mM EGTA and 30 μM [γ-^32P]ATP. Reactions were terminated by addition of Laemmli sample buffer. Phosphorylated Map2 was resolved on 7.5% acrylamide gels and incorporated radioactivity determined by autoradiography and subsequent excision of the bands followed by scintillation counting.

| IC50 (p45MEK (GST-MEK)) [nM] | melting point [°C] | IC50 [1] [nM] | Compound | IC50 ([1]; cell culture) [nM] |
| --- | --- | --- | --- | --- |
| 7 | 61 to 75 | – | Cc1cc(I)ccc1Nc1cc(F)ccc1C(=O)NO [Example 1, 4-Fluoro-N-hydroxy-2-(4-iodo-2-methyl-phenylamino)-benzamide] | – |
| 3 | 80 to 90 | – | Cc1cc(I)ccc1Nc1c(C(=O)NO)cc(Br)c(F)c1F [Example 2, 5-Bromo-3,4-difluoro-N-hydroxy-2-(4-iodo-2-methyl-phenylamino)-benzamide] | – |
| 18 | – | – | 5-Bromo-N-cyclopropylmethoxy-3,4-difluoro-2-(4-iodo-2-methyl-phenylamino) [Example 58] | 14 |
| 4 | – | 200 | Cc1cc(I)ccc1Nc1c(C(=O)NOCC2CCC2)cc(Br)c(F)c1F [Example 102, 5-Bromo-N-cyclobutylmethoxy-3,4-difluoro-2-(4-iodo-2-methyl-phenylamino)-benzamide] | – |
| 3 | – | 40 | O=C(NO)c1ccc([N+](=O)[O-])cc1Nc1ccc(I)cc1Cl [Example 82, 2-(2-Chloro-4-iodo-phenylamino)-N-hydroxy-4-nitro-benzamide] | – |

| Compound | IC50 (p45MEK (GST-MEK)) [nM] | melting point [°C] | IC50 [1] [nM] | IC50 ([1]; cell culture) [nM] |
| --- | --- | --- | --- | --- |
| Cc1cc(I)ccc1Nc1c(C(=O)NOCC(C)C)cc(Br)c(F)c1F [Example 99, 5-Bromo-3,4-difluoro-2-(4-iodo-2-methyl-phenylamino)-N-isobutoxy-benzamide] | 18 | – | 500 | – |
| 4-Fluoro-N-hydroxy-2-(4-cluoro-2-methyl-phenylamino)-benzamide [Example 11] | 334 | – | – | 500 |
